One compound from patent US12202829B2, “Heterocyclic compound” (FIMECS, Inc., priority 2018, dated 2025) can be followed below.

Test [1] has as its target T1, human XIAP_BIR3 domain purified protein (Homo sapiens, UniProt P98170).
T1 construct: purchased R & D
The test is described as follows: XIAP binding inhibitory activity, HTRF method with b-Smac ligand. The note with it: test compound 3 μM; first symbol of the cell; read-out: XIAP binding inhibition rate when the concentration of the test compound is 3 μM. A digest of the protocol: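 HTRF competition: human XIAP BIR3 and C-terminally biotinylated Smac peptide AVPIAQK, each diluted to 90 nM before addition, in HEPES pH 7.5 buffer with NaCl, BSA, Triton X-100. Eu-cryptate anti-His/streptavidin-XL665 detection after ≥4 h at room temperature; inhibition % from 665/615 ratio versus no-compound control.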

Test [2] deals with T2, GCN2 (Homo sapiens, UniProt Q9P2K8, S808G).
T2 construct: purchased Discover X (KINOMEscan service)
T2 sequence (Q9P2K8 590-1001 S808G limits assumed): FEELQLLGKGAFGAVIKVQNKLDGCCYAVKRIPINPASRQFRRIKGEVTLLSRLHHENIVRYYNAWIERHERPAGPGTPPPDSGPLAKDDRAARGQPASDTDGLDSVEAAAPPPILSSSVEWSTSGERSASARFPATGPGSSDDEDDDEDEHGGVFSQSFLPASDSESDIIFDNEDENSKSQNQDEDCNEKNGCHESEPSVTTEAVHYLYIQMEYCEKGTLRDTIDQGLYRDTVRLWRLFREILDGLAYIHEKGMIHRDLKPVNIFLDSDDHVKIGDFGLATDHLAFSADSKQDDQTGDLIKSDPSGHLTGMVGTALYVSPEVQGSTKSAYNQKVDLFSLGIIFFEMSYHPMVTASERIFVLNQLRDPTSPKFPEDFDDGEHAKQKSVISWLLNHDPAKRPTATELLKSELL
Description: KINOMEscan active site-dependent competitive binding assay, GCN2. The note with it: test compound 1 μM; DMSO = 100% Ctrl, control compound = 0% Ctrl. On the procedure: (§1) Each of GSK3a/B and GCN2 binding inhibitory activity was evaluated using active site-dependent competitive assay KINOMEscan provided by Discover X (Goldstein, D. M. et al. High-throughput kinase profiling as a platform for drug discovery. Nat. Rev. Drug Discovery. 7, 391-397 (2008)). the “% Ctrl” when the concentration of the test compound is 1 μM is shown in the table below. The “% Ctrl” is calculated by the following formula. (test compound signal−positive control compound signal)/(negative control compound signal−positive control compound signal)×100 • Negative control compound=DMSO (100% Ctrl) • Positive control compound=control compound (0% Ctrl)

For test [3], the target named is T3, GCN2 (Homo sapiens, UniProt Q9P2K8).
T3 construct: endogenous in cells; host or cells: THP1 (ATCC)
T3 sequence (Q9P2K8 whole entry): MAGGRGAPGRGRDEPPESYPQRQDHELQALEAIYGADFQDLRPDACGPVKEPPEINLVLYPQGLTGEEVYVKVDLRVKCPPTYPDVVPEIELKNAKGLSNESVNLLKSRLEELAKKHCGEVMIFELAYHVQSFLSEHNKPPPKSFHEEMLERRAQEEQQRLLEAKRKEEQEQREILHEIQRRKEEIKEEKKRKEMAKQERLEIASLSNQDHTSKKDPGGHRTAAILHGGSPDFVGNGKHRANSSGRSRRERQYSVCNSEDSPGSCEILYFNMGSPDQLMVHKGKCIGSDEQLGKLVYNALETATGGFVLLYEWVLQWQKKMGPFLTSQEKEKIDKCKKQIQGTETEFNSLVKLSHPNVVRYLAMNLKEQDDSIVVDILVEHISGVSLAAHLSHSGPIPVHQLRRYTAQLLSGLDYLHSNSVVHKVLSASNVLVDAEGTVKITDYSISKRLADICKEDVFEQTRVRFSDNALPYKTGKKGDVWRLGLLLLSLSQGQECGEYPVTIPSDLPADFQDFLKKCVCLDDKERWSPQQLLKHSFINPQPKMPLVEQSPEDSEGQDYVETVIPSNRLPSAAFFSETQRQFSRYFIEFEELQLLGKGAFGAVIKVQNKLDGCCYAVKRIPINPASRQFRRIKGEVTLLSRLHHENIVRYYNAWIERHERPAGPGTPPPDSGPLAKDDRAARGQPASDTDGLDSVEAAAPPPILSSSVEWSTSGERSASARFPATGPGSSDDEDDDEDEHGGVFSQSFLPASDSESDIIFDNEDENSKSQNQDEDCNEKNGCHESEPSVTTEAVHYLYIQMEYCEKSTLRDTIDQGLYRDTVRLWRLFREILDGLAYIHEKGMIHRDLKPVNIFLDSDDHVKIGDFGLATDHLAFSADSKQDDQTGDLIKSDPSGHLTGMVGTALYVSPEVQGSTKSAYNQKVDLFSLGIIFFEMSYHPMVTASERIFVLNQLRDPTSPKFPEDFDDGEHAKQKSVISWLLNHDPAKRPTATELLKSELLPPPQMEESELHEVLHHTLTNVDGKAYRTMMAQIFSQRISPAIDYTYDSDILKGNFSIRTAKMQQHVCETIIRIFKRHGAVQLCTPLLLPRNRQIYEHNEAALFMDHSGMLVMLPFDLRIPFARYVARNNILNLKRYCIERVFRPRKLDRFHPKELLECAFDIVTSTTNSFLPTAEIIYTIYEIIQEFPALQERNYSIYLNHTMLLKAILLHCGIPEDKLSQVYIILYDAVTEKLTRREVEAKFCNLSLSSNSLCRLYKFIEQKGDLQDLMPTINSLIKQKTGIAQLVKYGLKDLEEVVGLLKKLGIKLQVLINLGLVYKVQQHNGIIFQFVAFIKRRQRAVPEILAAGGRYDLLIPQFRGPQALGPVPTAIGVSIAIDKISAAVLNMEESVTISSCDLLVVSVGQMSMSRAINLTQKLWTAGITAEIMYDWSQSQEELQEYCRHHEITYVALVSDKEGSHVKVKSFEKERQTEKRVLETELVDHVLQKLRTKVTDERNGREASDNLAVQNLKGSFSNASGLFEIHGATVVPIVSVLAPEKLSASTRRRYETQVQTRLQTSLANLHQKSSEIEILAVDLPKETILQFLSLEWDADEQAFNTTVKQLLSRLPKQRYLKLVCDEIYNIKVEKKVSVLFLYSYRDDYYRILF
Description: In vitro degradation activity of GCN2 in THP1 cells, western blotting. The test is classed as cell-based. The note with it: test compound 10 μM, 24 hours, relative to DMSO control set at 100. On the procedure: (§2) In vitro degradation activities of GSK3α/β and GCN2 of the example compounds were evaluated by the following method. THP1 cells were purchased from ATCC and cultured in RPMI-1640 supplemented with 10% FBS and 1% penicillin/streptomycin. THP1 cells were seeded at a density of 1×10^6 cells/well in 24-well plate and treated with DMSO control or Example 55 (1, 3, 10 μM), and then incubated for 24 hours. The cells were collected and lysed on ice for 30 minutes in RIPA buffer (Thermo Fisher #87787) containing a protease inhibitor cocktail (Sigma-Aldrich). The lysates were sonicated for 30 sec ON/30 sec OFF for ten cycles and centrifuged for 15 minutes at 15 krpm at 4° C. Protein concentrations were determined by the BCA assay (Thermo Fisher). Proteins were separated with Nu-PAGE (Thermo Fisher) and analyzed by western blotting (standard protocol) using antibodies of anti-GSK3α/β (Cell Signaling #5676), GCN2 (Cell Signaling #3302), and R-actin (Sigma #A2066) (FIG. 1). Bands (luminescent intensities) were quantified using LAS-4000 luminescent image analyzer (Fuji). The values of GSK3α/β and GCN2 were corrected by the internal control value of β-actin and analyzed relative to DMSO control set at 100. The remaining protein rate (%) are described as A≤25%, 25%<B≤50%, 50%<C≤75%, D>75% when the concentration of the test compound is 10 μM.
Background: Immunoblotting shows a protein as a band on a membrane.

In the next test the test system is GSK3α/β and GCN2. The test is described as follows: Ubiquitin-proteasome system dependency of degradation in THP1 cells with Epoxomicin. The test is classed as cell-based, human. The note with it: test compound 10 μM with or without 1 μM Epoxomicin, 8 hours, FIG. 2. How it is done:
THP1 cells were seeded at a density of 1×10^6 cells/well in 24-well plate and treated with DMSO control or Example 55 (10 μM) with or without 1 μM of Epoxomicin and incubated for 8 hours. The cells were collected and lysed on ice for 30 minutes in RIPA buffer (Thermo Fisher #87787) containing a protease inhibitor cocktail (Sigma-Aldrich). The lysates were sonicated for 30 sec ON/30 sec OFF for ten cycles and centrifuged for 15 minutes at 15 krpm at 4° C. Protein concentrations were determined by the BCA assay (Thermo Fisher). Proteins were separated with Nu-PAGE (Thermo Fisher) and analyzed by western blotting (standard protocol) using antibodies of anti-GSK3α/β Cell Signaling #5676), GCN2 (Cell Signaling #3302), and β-actin (Sigma #A2066) (FIG. 2).

For test [4], the target named is T4, GSK3α (Homo sapiens, UniProt P49840). Description: KINOMEscan active site-dependent competitive binding assay, GSK3α. Also on record: purchased Discover X (KINOMEscan service). The note with it: test compound 1 μM; DMSO = 100% Ctrl, control compound = 0% Ctrl. On the procedure: as §1
T4 sequence (P49840 whole entry): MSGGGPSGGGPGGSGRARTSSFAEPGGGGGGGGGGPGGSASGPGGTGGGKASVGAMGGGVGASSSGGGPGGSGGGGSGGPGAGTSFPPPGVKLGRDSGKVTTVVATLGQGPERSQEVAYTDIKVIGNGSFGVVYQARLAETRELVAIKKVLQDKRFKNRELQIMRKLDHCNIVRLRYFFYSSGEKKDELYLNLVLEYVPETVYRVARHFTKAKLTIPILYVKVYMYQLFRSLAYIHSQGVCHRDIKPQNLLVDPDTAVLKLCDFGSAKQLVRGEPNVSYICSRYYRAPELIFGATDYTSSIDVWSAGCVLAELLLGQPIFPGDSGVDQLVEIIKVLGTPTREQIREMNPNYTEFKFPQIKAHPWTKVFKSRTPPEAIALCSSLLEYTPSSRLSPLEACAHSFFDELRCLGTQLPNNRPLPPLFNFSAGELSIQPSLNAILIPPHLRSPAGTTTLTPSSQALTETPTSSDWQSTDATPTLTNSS
The target of test [5] is T5, GSK3β (Homo sapiens, UniProt P49841). The test is described as follows: KINOMEscan active site-dependent competitive binding assay, GSK3β. Also on record: purchased Discover X (KINOMEscan service). The note with it: test compound 1 μM; DMSO = 100% Ctrl, control compound = 0% Ctrl. How it is done: as §1
T5 sequence (P49841 whole entry): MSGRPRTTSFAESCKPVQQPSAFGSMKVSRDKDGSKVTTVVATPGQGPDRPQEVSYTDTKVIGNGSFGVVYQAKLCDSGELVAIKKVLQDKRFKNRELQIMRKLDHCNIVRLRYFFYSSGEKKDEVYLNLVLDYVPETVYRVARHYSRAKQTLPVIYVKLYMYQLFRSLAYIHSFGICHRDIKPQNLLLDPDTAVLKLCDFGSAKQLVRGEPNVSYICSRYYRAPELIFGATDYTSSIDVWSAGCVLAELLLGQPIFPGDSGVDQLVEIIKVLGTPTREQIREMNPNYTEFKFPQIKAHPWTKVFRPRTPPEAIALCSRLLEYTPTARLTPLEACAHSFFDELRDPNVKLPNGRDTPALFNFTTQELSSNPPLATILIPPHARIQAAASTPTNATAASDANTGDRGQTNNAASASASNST
The target in test [6] is T4, GSK3α. The test is described as follows: In vitro degradation activity of GSK3α in THP1 cells, western blotting. The note with it: test compound 10 μM, 24 hours, relative to DMSO control set at 100. The test is classed as cell-based. Further details: endogenous in cells; host or cells: THP1 (ATCC). How it is done: as §2
Test [7] concerns the target T5, GSK3β. Description: In vitro degradation activity of GSK3β in THP1 cells, western blotting. The test is classed as cell-based. The note with it: test compound 10 μM, 24 hours, relative to DMSO control set at 100. Further details: endogenous in cells; host or cells: THP1 (ATCC). How it is done: as §2

T1 sequence (P98170 252-356 limits assumed): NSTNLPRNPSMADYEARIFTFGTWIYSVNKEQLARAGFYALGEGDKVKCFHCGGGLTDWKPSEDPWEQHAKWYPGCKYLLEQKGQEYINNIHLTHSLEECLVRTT

Take `CN[C@@H](C)C(=O)N[C@H](C(=O)N1CCN(C(=O)c2c(C(=O)NCCOCCOCC(=O)N3CCN(c4ccc(Nc5ncc6nnn(-c7ccc(OC)c(OC)c7)c6n5)cc4)CC3)c3ccc(OC)cc3n2C)CC1)C1CCCCC1` [Example 55, 2-(4-((S)-2-Cyclohexyl-2-((S)-2-(methylamino)propanamido)acetyl)piperazine-1-carbonyl)-N-(2-(2-(2-(4-(4-((3-(3,4-dimethoxyphenyl)-3H-[1,2,3]triazolo[4,5-d]pyrimidin-5-yl)amino)phenyl)piperazin-1-yl)-2-oxoethoxy)ethoxy)ethyl)-6-methoxy-1-methyl-1H-indole-3-carboxamide]: the inhibition at 3 µM in test [1] is > 75%. In addition, the values for the remaining binding at 1 µM at GCN2 [2], on GSK3α [4] and at GSK3β [5] were 0.35%, 39% and 11%, respectively. Further, the “remaining protein rate (%) GCN2” value at GCN2 [3] was “A (A≤25%)”. Moreover, the “degradation activity of GSK3α/β and GCN2 with proteasome inhibitor Epoxomicin” value in the test on GSK3α/β and GCN2 is listed as “cancelled by the proteasome inhibitor Epoxomicin treatment”. On GSK3α [6], the “remaining protein rate (%) GSK3α” value is “B (25%<B≤50%)”. Also, the “remaining protein rate (%) GSK3β” value at GSK3β [7] is given as “B (25%<B≤50%)”.
